Results from patent publication US20150119410A1, “BIOMARKERS OF RESPONSE TO NAE INHIBITORS” (MILLENNIUM PHARMACEUTICALS, INC., priority 2011, published 2015).

Legend:
Assay type in all cases: cell-based
[1] = system: p21; experiment: Western blot of p21 in TP53 −/− HCT-116 cells; conditions: TP53 −/− HCT-116 cells treated with MLN4924
[2] = system: CaR-1; experiment: Cell line panel 1 viability screen; conditions: CaR-1 (large_intestine)
Procedure: (§1) To support clinical development and identify potential biomarkers of tumor sensitivity or resistance, two large cancer cell line panels (Panel 1, N=653 (McDermott et al. (2007) PNAS 104:19936-19941); Panel 2, N=240 (O'Day et al. (2010) Fourth AACR International Conference on Molecular Diagnostics in Cancer Therapeutic Development)) were treated with MLN4924 and cell viability data (IC50, EC50, and POC—Percentage of Control) were generated.
(§2) Panel 1 (McDermott et al., supra). The cell lines were exposed to three MLN4924 concentrations (20 nM, 200 nM, and 2 μM) for 72 hours. Viability, i.e., cell number, was quantified by measuring fluorescence of a cell-permeant nucleic acid stain. Mean of triplicate values for each sample were taken and compared to DMSO control to calculate percentage of control. In the results, control or no activity value is given a value of about 1, sensitivity is indicated by a value less than 1, with 0 as death of the entire cell population and resistance indicated by a value greater than 1. A continuum of viability values was obtained for each concentration, so some values were selected as cut-offs for final determination of sensitivity or resistance. For example, median POC values of less than the median value of all POC's recorded in the panel (<0.34) indicated sensitivity, values of 0.34 to 0.75 indicated borderline sensitivity, values greater than the 3rd quartile of all POC's in the panel (>0.75) insensitivity or resistance. […] Final judgment of cell line as sensitive, insensitive or resistant was determined by its viability at 2 μM.

[3] = system: NCl-H630; experiment: Cell line panel 1 viability screen; conditions: NCl-H630 (intestine); 2 μM MLN4924, 72 hours; DMSO control about 1
Procedure: as §1, §2

[4] = system: RCM-1; experiment: Cell line panel 1 viability screen
Procedure: as §1, §2

[5] = system: HGC-27; experiment: Cell line panel 1 viability screen; conditions: Homo sapiens; HGC-27 (stomach); 2 μM MLN4924, 72 hours; DMSO control about 1
Procedure: as §1, §2

[6] = system: SW837; experiment: Cell line panel 1 viability screen; conditions: Homo sapiens; SW837 (intestine); 2 μM MLN4924, 72 hours; DMSO control about 1
Procedure: as §1, §2

[7] = system: HT29; experiment: Cell line panel 1 viability screen
Procedure: as §1, §2

[8] = system: KYSE-450; experiment: Cell line panel 1 viability screen; conditions: KYSE-450 (oesophagus)
Procedure: as §1, §2

[9] = system: S-117; experiment: Cell line panel 1 viability screen; conditions: S-117 (soft_tissue)
Procedure: as §1, §2

[10] = system: 647-V; experiment: Cell line panel 1 viability screen; conditions: 647-V (urinary_tract)
Procedure: as §1, §2

[11] = system: NUGC-3; experiment: Cell line panel 1 viability screen; conditions: NUGC-3 (stomach)
Procedure: as §1, §2

[12] = system: LK-2; experiment: Cell line panel 1 viability screen; conditions: Homo sapiens; LK-2 (lung); 2 μM MLN4924, 72 hours; DMSO control about 1
Procedure: as §1, §2

[13] = system: HT29; experiment: Cell line panel 2 high-content screen; conditions: Homo sapiens; HT29 / HT-29 (intestine); 72 hours
Procedure: as §1
(§3) Panel 2 (Ricerca Biosciences, Inc., Bothell, Wash.). MLN4924 was added in half-log dilutions for 10 concentrations and treated for 72 hours. High-content cell screening by fluorescence microscopy included image analysis to generate several types of data. Results included EC50 values (after measurement of cell numbers, the EC50 concentration was calculated from the inflection point of a curve of percent of control (POC) against log of MLN4924 concentration), IC50 values (from the POC-log MLN4924 plot, IC50 is the concentration at 50% maximal possible response), apoptosis (measurement of activation of caspase 3 plotted against log of MLN4924 concentration, determined as the concentration for >5 fold induction), and mitotic activity (determined by measuring the fold increase of phospho-histone 3). A comparison of EC50 to IC50 (FIG. 3) allowed assignment of cell lines to sensitive, insensitive or resistant. Final identification of a cell line as sensitive or resistant was based on the EC50 values. The cutoff for sensitivity is a median EC50 of less than the median value of all POC's recorded in the panel (<0.36), borderline sensitivity was associated with median EC50 of 0.36 to 1.67 and insensitive or resistant cell lines were identified by EC50 greater than the 3rd quartile of all POC's in the panel (>1.67).

[14] = system: BV-173; experiment: Cell line panel 2 high-content screen; conditions: BV-173 (haematopoietic, lymphoid_tissue)
Procedure: as §1, §3

[15] = system: HCT-116 TP53 +/+ cells; experiment: ATPlite viability assay, isogenic HCT-116 pair; conditions: Homo sapiens, HCT-116 TP53 +/+ (wild-type), 72 h, read-out: LC50 (the source's name)
Procedure: (§4) Paired isogenic HCT-116 cell lines that were either wild-type (+/+) or null (−/−) for p53 expression (HD PAR-018 and HD 104-001, respectively, Horizon Discovery Ltd) were seeded in separate 384-well plates and then treated the following day with a titration of MLN4924 triplicate, and incubated for 24, 36, 48 or 72 h, with seeding densities of 1600, 1200, 800, and 400 cells/well, respectively. Following compound incubation, viability of HCT-116 cells was assessed by ATPlite assay (Perkin Elmer) according to the manufacturer's instructions using the LEADseeker imaging system (GE Healthcare).

[16] = system: HCT-116 TP53 −/− cells; experiment: ATPlite viability assay, isogenic HCT-116 pair
Procedure: as §4

[17] = Homo sapiens, 2 μM MLN4924, 72 hours, DMSO control about 1

NS(=O)(=O)OC[C@@H]1C[C@@H](n2ccc3c(N[C@H]4CCc5ccccc54)ncnc32)C[C@@H]1O [MLN4924, ((1S,2S,4R)-4-{4-[(1S)-2,3-dihydro-1H-inden-1-ylamino]-7H-pyrrolo[2,3-d]pyrimidin-7-yl}-2-hydroxycyclopentyl)methyl sulphamate]
p21 level (Western blots) [1]: still up-regulated | Phenotype ([2]; NF2 mutant): sensitive (median POC values of less than the median value of all POC's recorded in the panel (<0.34) indicated sensitivity) | viability at 2 µM [2, 17]: 32.4% | viability at 2 µM [3]: 75% | viability at 2 µM ([4]; Homo sapiens, RCM-1 (intestine), 2 μM MLN4924, 72 hours, DMSO control about 1): 76.7% | Phenotype ([4]; RCM-1 (Intestine), FBXW7 mutant): resistant (values greater than the 3rd quartile of all POC's in the panel (>0.75) insensitivity or resistance) | viability at 2 µM [5]: 12.9% | viability at 2 µM [6]: 70.2% | Phenotype ([7]; HT-29 (large_intestine), SMAD4 mutant): insensitive (values of 0.34 to 0.75 indicated borderline sensitivity) | viability at 2 µM ([7]; Homo sapiens, HT29 / HT-29 (intestine), 2 μM MLN4924, 72 hours, DMSO control about 1): 43.8% | viability at 2 µM [8, 17]: 14.3% | Phenotype ([8]; KDM6A mutant): sensitive (median POC values of less than the median value of all POC's recorded in the panel (<0.34) indicated sensitivity) | viability at 2 µM [9, 17]: 64.1% | Phenotype ([9]; NF2 mutant): resistant (values greater than the 3rd quartile of all POC's in the panel (>0.75) insensitivity or resistance) | Phenotype ([10]; NF2 mutant): sensitive (median POC values of less than the median value of all POC's recorded in the panel (<0.34) indicated sensitivity) | viability at 2 µM [10, 17]: 3.8% | viability at 2 µM [11, 17]: 9.8% | Phenotype ([11]; NF2 mutant): sensitive (median POC values of less than the median value of all POC's recorded in the panel (<0.34) indicated sensitivity) | viability at 2 µM [12]: 28.9% | EC50 [13]: 250 nM | Phenotype ([14]; KDM6A mutant): sensitive (The cutoff for sensitivity is a median EC50 of less than the median value of all POC's recorded in the panel (<0.36)) | EC50 ([14]; Homo sapiens, 72 hours): 131 nM | CC50 [15]: 21 ± 1 nM | CC50 ([16]; Homo sapiens, HCT-116 TP53 −/− (null), 72 h, ATPlite, read-out: LC50 (the source's name)): 74 ± 5 nM | cell death at the highest drug concentrations ([16]; TP53 −/− versus TP53 +/+ HCT-116, 24, 36, and 48 h): less cell death
